This note sets out measurements from ChEMBL document CHEMBL5291721, “A preclinical secondary pharmacology resource illuminates target-adverse drug reaction associations of marketed drugs” (Nat Commun, 2023).

For orientation: AC50 means the concentration giving half of the maximal activity seen.

Assay [1] deals with T1, Alpha-1A adrenergic receptor (Homo sapiens, UniProt P35348).
T1 sequence (P35348 whole entry): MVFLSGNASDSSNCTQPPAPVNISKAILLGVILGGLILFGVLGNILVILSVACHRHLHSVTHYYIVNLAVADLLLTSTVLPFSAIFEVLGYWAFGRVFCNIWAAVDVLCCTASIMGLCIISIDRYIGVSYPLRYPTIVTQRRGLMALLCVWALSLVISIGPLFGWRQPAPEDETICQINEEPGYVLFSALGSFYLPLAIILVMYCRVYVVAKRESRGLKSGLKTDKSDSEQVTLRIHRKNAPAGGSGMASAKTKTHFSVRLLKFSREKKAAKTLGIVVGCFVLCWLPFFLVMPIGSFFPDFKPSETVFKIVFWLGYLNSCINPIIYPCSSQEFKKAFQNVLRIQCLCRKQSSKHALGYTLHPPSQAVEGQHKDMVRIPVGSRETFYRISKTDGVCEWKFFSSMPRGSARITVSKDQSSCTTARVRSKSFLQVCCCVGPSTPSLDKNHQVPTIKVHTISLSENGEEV
It counts as functional, cell-based.

Assay [2] has as its target T2, Cannabinoid receptor 1 (Homo sapiens, UniProt P21554). It counts as functional, cell-based.
Assay [3] concerns the target T2, Cannabinoid receptor 1. The class given is functional, cell-based. The source holds these as a separate data set.
Assay [4] has as its target D(3) dopamine receptor (Homo sapiens, UniProt P35462).
Assay [5] has as its target Histamine H3 receptor (Homo sapiens, UniProt Q9Y5N1).
For assay [6], the target named is T3, 5-hydroxytryptamine receptor 1A (Homo sapiens, UniProt P08908).
T3 sequence (P08908 whole entry): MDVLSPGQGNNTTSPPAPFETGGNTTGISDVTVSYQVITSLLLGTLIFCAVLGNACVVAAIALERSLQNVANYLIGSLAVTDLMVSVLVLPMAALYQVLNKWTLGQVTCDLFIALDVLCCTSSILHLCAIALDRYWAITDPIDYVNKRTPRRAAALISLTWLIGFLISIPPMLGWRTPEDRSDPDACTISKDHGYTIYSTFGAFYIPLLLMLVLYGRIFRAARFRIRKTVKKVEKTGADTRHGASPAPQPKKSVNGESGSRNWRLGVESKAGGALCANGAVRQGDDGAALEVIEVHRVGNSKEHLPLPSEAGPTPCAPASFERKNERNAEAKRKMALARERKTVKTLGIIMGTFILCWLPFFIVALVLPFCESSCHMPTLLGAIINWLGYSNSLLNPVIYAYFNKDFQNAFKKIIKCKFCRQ
It counts as functional, cell-based.

The target of assay [7] is 5-hydroxytryptamine receptor 2B (Homo sapiens, UniProt P41595). The class given is functional, cell-based.
Assay [8] deals with Mu-type opioid receptor (Homo sapiens, UniProt P35372).
Assay [9] deals with T4, Progesterone receptor (Homo sapiens, UniProt P06401).
T4 sequence (P06401 whole entry): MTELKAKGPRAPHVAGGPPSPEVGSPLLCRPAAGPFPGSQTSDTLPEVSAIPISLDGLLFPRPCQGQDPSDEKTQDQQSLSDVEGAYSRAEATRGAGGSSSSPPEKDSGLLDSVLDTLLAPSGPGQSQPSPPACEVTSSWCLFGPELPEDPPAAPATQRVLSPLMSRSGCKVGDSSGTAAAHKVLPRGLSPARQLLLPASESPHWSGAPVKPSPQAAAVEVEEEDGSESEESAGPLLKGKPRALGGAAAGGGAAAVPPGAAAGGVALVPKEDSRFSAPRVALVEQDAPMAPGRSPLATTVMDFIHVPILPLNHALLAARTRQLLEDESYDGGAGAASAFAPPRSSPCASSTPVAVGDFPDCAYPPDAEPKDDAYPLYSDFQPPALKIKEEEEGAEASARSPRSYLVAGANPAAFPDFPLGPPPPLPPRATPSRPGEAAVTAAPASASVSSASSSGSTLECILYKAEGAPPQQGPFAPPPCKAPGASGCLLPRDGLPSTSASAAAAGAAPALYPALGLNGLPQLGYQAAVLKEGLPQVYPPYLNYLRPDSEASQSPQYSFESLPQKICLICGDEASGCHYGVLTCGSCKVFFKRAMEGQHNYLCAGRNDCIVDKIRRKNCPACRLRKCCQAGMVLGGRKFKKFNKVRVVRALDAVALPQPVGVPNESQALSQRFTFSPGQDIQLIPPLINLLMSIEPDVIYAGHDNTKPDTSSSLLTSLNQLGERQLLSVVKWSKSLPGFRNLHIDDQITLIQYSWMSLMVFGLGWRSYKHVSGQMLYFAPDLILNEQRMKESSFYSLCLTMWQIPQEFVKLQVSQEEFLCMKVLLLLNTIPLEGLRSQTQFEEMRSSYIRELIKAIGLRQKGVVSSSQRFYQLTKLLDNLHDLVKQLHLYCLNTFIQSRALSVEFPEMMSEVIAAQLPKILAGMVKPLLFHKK
It counts as functional.

For assay [10], the target named is T4, Progesterone receptor. The class given is functional. This is another data set of the same source.
The target in assay [11] is Prostaglandin G/H synthase 1 (Homo sapiens, UniProt P23219). It counts as functional.
Assay [12] has as its target T5, Muscarinic acetylcholine receptor M1 (Homo sapiens, UniProt P11229).
T5 sequence (P11229 whole entry): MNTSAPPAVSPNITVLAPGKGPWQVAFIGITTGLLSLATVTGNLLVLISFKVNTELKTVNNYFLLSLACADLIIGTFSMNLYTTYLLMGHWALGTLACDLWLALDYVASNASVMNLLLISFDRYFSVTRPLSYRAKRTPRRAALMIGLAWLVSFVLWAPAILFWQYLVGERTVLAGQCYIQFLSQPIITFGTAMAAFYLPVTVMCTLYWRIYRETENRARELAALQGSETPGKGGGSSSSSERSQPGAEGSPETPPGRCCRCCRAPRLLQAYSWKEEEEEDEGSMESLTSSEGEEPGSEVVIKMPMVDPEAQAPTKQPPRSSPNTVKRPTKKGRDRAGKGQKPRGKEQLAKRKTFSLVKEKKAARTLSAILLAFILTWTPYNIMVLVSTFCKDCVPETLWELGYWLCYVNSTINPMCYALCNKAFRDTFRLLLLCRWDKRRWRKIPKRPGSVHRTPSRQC
The class given is functional, cell-based.

For assay [13], the target named is Voltage-dependent L-type calcium channel subunit alpha-1C (Rattus norvegicus, UniProt P22002). The class given is functional.
Note: assay procedure not described here.

Chain of Prostaglandin G/H synthase 1 (P23219 whole entry): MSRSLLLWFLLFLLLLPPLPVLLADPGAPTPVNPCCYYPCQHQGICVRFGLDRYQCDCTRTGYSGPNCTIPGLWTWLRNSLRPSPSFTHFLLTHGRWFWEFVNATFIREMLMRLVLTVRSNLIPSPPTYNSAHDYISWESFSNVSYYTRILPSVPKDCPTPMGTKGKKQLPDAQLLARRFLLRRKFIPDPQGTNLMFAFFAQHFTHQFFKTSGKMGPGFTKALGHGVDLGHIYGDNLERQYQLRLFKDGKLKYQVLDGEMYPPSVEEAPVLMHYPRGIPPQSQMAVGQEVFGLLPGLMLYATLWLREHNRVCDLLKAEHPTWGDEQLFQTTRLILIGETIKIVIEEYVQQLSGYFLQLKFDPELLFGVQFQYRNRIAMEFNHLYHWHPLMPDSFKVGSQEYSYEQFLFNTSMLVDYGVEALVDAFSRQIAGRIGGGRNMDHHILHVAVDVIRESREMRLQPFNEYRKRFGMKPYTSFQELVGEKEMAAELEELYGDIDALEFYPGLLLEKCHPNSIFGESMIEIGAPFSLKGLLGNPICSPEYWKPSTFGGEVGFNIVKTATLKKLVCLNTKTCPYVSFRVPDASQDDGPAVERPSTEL
Chain of D(3) dopamine receptor (P35462 whole entry): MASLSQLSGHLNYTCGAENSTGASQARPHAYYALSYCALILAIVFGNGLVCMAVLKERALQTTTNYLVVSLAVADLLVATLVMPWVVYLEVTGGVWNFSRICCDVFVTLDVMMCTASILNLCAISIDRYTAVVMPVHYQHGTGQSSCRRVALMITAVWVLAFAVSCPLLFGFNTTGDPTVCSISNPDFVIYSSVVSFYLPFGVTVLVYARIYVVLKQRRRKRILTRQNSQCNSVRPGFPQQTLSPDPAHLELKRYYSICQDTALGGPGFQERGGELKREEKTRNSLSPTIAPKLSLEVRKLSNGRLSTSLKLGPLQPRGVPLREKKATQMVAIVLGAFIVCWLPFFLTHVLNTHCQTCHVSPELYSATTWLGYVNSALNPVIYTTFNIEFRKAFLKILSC
Chain of 5-hydroxytryptamine receptor 2B (P41595 whole entry): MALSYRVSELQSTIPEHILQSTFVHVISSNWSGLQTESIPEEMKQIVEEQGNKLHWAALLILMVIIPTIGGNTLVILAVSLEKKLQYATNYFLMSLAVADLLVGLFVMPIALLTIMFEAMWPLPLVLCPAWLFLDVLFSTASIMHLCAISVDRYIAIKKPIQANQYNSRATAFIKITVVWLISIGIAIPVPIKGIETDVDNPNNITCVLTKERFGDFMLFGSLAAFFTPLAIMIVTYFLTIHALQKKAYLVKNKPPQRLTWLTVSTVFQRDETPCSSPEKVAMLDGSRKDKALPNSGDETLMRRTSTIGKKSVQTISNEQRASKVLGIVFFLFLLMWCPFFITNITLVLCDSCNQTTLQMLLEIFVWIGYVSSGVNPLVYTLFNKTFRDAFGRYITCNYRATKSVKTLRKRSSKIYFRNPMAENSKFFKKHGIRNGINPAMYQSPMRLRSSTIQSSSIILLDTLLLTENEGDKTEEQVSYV
Chain of Mu-type opioid receptor (P35372 whole entry): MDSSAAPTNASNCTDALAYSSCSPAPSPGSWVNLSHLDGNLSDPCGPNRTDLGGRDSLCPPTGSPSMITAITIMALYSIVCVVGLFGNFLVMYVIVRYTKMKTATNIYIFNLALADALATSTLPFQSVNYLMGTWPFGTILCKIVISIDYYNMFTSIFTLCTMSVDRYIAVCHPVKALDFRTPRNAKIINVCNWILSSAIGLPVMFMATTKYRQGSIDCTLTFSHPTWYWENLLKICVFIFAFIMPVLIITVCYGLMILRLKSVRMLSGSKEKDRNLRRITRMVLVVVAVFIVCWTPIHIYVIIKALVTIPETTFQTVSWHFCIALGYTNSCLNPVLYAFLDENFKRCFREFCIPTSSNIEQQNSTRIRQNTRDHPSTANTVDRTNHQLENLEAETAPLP
T2 sequence (P21554 whole entry): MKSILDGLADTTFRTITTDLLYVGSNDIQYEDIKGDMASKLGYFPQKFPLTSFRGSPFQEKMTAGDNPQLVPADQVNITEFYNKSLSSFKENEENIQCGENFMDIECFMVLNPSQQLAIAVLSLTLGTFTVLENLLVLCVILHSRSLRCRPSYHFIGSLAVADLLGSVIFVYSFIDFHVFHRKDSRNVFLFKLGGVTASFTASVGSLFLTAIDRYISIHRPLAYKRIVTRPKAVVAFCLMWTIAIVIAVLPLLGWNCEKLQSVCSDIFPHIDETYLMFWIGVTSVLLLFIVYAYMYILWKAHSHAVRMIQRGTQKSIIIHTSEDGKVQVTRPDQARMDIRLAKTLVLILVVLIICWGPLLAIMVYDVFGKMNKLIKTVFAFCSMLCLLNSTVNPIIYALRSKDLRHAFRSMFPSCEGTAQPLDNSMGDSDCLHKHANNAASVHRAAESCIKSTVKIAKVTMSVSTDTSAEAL
Chain of Histamine H3 receptor (Q9Y5N1 whole entry): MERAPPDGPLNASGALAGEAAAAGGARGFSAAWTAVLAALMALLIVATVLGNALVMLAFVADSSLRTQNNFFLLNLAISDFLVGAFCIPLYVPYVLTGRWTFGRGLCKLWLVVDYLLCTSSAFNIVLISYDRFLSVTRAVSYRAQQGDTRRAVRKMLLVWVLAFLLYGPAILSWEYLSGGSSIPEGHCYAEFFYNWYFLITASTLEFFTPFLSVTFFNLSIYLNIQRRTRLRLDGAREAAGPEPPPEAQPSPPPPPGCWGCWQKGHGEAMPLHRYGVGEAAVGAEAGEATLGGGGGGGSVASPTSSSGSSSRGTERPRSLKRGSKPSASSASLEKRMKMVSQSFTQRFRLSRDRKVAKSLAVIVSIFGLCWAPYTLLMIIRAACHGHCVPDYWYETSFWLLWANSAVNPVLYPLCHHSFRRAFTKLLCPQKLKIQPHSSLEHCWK
Chain of Voltage-dependent L-type calcium channel subunit alpha-1C (P22002 whole entry): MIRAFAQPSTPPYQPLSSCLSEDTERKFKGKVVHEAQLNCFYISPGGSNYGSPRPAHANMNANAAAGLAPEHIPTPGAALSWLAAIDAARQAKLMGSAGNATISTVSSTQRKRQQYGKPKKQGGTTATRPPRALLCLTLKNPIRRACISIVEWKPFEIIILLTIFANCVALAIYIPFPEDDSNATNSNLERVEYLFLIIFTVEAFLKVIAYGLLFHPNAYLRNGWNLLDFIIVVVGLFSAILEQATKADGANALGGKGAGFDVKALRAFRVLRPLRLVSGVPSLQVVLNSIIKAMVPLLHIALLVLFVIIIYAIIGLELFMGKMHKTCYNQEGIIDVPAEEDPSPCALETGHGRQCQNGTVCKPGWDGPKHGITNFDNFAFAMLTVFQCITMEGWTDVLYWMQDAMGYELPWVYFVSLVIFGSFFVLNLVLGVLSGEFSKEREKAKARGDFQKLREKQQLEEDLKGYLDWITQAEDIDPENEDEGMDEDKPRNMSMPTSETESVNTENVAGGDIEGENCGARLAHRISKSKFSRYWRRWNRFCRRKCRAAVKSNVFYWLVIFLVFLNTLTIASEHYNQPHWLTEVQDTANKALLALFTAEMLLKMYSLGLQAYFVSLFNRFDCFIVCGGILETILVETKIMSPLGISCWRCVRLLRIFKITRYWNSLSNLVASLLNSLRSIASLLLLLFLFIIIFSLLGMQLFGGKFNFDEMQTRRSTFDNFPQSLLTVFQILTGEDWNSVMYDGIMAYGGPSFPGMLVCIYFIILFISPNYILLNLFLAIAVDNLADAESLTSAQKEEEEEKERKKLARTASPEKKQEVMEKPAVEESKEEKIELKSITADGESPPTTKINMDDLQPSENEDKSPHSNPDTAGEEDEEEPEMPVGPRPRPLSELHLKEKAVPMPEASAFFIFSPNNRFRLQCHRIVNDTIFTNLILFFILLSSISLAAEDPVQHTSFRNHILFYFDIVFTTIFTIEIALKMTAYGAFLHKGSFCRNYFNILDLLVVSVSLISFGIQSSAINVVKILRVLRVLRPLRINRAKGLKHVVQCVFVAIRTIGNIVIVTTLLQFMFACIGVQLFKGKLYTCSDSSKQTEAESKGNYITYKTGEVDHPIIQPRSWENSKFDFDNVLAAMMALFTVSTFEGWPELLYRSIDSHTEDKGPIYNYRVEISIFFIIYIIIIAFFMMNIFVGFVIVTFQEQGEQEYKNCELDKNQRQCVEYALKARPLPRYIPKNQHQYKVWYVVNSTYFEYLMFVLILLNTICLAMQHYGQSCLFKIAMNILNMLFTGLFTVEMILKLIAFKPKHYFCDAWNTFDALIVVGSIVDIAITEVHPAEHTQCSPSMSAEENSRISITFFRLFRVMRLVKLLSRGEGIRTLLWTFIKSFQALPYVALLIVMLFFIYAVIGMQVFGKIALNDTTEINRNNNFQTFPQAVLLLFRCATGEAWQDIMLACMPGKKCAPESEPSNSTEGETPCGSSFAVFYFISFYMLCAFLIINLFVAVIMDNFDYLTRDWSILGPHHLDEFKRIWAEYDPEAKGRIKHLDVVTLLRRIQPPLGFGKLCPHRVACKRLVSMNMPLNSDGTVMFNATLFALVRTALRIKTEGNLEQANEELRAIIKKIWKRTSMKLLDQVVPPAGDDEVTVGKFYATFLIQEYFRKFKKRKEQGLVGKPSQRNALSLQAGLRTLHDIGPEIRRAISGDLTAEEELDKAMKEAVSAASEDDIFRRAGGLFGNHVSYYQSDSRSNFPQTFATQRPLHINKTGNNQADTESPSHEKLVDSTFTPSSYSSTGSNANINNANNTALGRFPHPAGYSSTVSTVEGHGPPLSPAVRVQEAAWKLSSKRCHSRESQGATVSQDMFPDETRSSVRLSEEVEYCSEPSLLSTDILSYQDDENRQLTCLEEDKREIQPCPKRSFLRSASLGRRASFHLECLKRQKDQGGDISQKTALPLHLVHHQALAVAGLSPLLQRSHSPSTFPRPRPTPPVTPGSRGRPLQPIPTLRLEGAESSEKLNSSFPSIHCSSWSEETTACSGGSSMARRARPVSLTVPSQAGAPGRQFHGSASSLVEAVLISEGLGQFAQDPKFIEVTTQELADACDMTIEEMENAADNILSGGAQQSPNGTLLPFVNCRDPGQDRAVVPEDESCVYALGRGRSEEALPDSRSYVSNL

With `CC(=O)Nc1ccc(O)cc1` [ACETAMINOPHEN], the AC50 in assay [1], in assay [2], in [3], in [4], in assay [5] and in assay [6] was greater than 30 µM throughout. Moreover, the AC50 in [7], in assay [8], in assay [9], in assay [10] and in assay [11] was greater than 30 µM in each case.
`COC(c1ccccc1)(c1ccccc1)[C@H](Oc1nc(C)cc(C)n1)C(=O)O` [AMBRISENTAN]: the AC50 in assay [1], in [12], in assay [4], in assay [5], in assay [7] and in [8] was greater than 30 µM in each case. The compound also showed an AC50 in assay [11] greater than 30 µM.
For `CN(C)CCn1nnnc1SCC1=C(C(=O)O)N2C(=O)[C@@H](NC(=O)Cc3csc(N)n3)[C@H]2SC1` [CEFOTIAM], the AC50 in assay [1], in assay [12], in assay [4], in assay [5], in assay [7] and in assay [8] was greater than 30 µM each time. Further, the AC50 in assay [11] was greater than 30 µM.
As for `Oc1c(Cl)cc(Cl)c2cccnc12` [CHLOROXINE], the AC50 in assay [1], in [12], in assay [4], in assay [5], in [7] and in assay [8] was greater than 30 µM each time. This compound returned an AC50 in assay [11] greater than 0.3 µM.
For the compound `CN(C)[C@@H](c1cccc(O)c1)[C@H]1CCCC[C@H]1O` [CIRAMADOL], the AC50 was greater than 30 µM in assay [1]; greater than 30 µM in [12]; greater than 30 µM in assay [4]; greater than 30 µM in assay [5]; greater than 30 µM in assay [7]; 0.0059 µM in [8]. Moreover, in [11], the AC50 was greater than 30 µM.
Regarding `CN(C)CC(c1ccc(O)cc1)C1(O)CCCCC1` (stereo not given) [DESVENLAFAXINE], the AC50 in assay [1] was greater than 30 µM; in [12], greater than 30 µM; in assay [5] it was greater than 30 µM; in [7], greater than 30 µM; in assay [8], 28.4 µM; in [11], greater than 30 µM.
As for `CN(C)CCN1C(=O)c2ccccc2N(C)c2ccccc21` [DIBENZEPIN], the AC50 in assay [12] was greater than 30 µM; in [4] it was 16.3 µM; in [5] it was greater than 30 µM; in [7], greater than 30 µM; in [8], 28.8 µM; in [11] it was greater than 30 µM.
On to `N[C@H](C(=O)O)[C@H](O)c1ccc(O)c(O)c1` [DROXIDOPA], for which the AC50 in [12], in assay [4], in assay [5], in assay [7], in [8] and in assay [11] was greater than 30 µM in each case.
Take `Cc1cc(C#N)cc(C)c1Oc1nc(Nc2ccc(C#N)cc2)nc(N)c1Br` [ETRAVIRINE]: the AC50 in assay [1] is greater than 3 µM; in [12], greater than 10 µM; in [4], greater than 30 µM; in assay [5] it was greater than 30 µM; in assay [7], greater than 30 µM; in assay [8], 19.1 µM. The compound also had an AC50 in [11] of 20.4 µM.
With `O=C(O)c1cc(O)ccc1O` [GENTISIC ACID], the concentration at half-maximal activity (AC50) in assay [1], in [12], in [4], in assay [5], in assay [7] and in assay [8] was greater than 30 µM in each case. Also, the AC50 in assay [11] was greater than 30 µM.
For `CC(C)Nc1ncccn1` [ISAXONINE], the AC50 in [1], in assay [12], in assay [4], in assay [5], in assay [7] and in assay [8] was greater than 30 µM each time. In [11], the AC50 is greater than 30 µM.
Regarding `N[C@@H](C(=O)N[C@@H]1C(=O)N2C(C(=O)O)=C(Cl)CC[C@H]12)c1ccccc1` [LORACARBEF ANHYDROUS], the AC50 in assay [1], in [12], in [4], in assay [5], in assay [7] and in assay [8] was greater than 30 µM throughout. Besides, in [11], the concentration at half-maximal activity (AC50) was greater than 30 µM.
`OCCN1C[C@H](O)[C@@H](O)[C@H](O)[C@H]1CO` [MIGLITOL]: the AC50 in assay [1], in [12], in [4], in [5], in assay [7] and in assay [8] was greater than 30 µM throughout. The same compound registered a half-maximal activity concentration (AC50) in assay [11] greater than 30 µM.
As for `CC(=O)N[C@@H]1[C@@H](O)[C@H](O)[C@@H](CO)O[C@H]1O` [N-ACETYLGLUCOSAMINE], the half-maximal activity concentration (AC50) in assay [1], in assay [12], in assay [4], in [5], in assay [7] and in assay [8] was greater than 30 µM each time. For the same compound, the AC50 in [11] is greater than 30 µM.
`C=C[C@H]1C[N@@]2CC[C@H]1C[C@H]2[C@H](O)c1ccnc2ccc(OC)cc12` [QUININE]: the AC50 was greater than 30 µM in assay [12]; greater than 30 µM in [4]; greater than 30 µM in assay [5]; greater than 30 µM in assay [7]; 8.38 µM in [8]; greater than 10 µM in [11].
Regarding `Cc1cn([C@H]2C[C@H](N=[N+]=[N-])[C@@H](CO)O2)c(=O)[nH]c1=O` [ZIDOVUDINE], the AC50 in [1] is greater than 30 µM; in assay [13], greater than 10 µM; in assay [2] it was greater than 30 µM; in assay [3], greater than 30 µM; in assay [4], greater than 30 µM; in assay [5], greater than 30 µM. Moreover, the AC50 is greater than 10 µM in assay [6], greater than 30 µM in [7], greater than 30 µM in [8] and greater than 30 µM in assay [11].
